Where two headings read alike, the source gives them in different places.
Tests used:
[1] = target: Cys242 in human PIK3CA (157-299) (Homo sapiens (Human), UniProt P42336); experiment: Covalent modification assay using MALDI-TOF MS; type: biochemical; settings: 4 h reaction time point
Method in brief: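 PIK3CA (157-299) at 3.33 μM or 1 μM in 20 mM HEPES, 150 mM NaCl, 2 mM MgCl2, pH 7.3 was incubated with compound (from 10 mM DMSO stocks) in the dark at room temperature for 15 min, 30 min, 2 h or 4 h. Linear-mode MALDI-TOF peak heights gave percent modification.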

pAKT in BT474 cells = experiment: Cell-based pAKT HTRF assay in BT474 cells; settings: BT474 cells, 4 hr incubation, read-out: pAKT inhibition IC50 in BT474 cells
Method in brief: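 Treatment lasts 4 hr in DMEM/10% FBS at 0.25% DMSO over nine 3-fold dilutions from 3 μM. The lysate is then probed by HTRF.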

[2] = 1 μM protein target, 1:5 protein to compound ratio (compounds 853-1279)
[3] = 3.33 μM protein target, 1:7.5 protein to compound ratio (compounds 1-852)
[4] = Homo sapiens, BT-474, Compounds 10-999

Sequence of Cys242 in human PIK3CA (157-299) (P42336 157-299): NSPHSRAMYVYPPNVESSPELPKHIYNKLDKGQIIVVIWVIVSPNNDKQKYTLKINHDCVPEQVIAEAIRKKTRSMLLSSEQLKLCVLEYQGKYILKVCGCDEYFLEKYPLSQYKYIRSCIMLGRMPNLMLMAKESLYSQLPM

Row | Compound | % of modification [1, 2] | IC50 (pAKT in BT474 cells; Compounds 1000-1279) [nM] | % of modification [1, 3] | IC50 (pAKT in BT474 cells; [4]) [nM] | IC50 (pAKT in BT474 cells; Compounds 10-999) [nM]
1 | C=CC(=O)N1CCn2nc(-c3nc(-c4ccc5c(c4)CN(C)CC54CC4)c4ccsc4c3-c3c(F)cc(F)cc3OCCO)cc2C1C (stereo not shown) [Compound 1114] | A (percent of modification of PIK3CA protein ≥75%) | < 100 |  |  | 
2 | C=CC(=O)N1[C@H](C)Cn2nc(-c3nc(-c4ccc5c(c4)CCN(C)C5)c4ccsc4c3-c3c(F)cc(F)cc3OCCOC)cc2[C@@H]1C [Compound 480, 1-((4S,6R)-2-(7-(2,4-difluoro-6-(2-methoxyethoxy)phenyl)-4-(2-methyl-1,2,3,4-tetrahydroisoquinolin-6-yl)thieno[3,2-c]pyridin-6-yl)-4,6-dimethyl-6,7-dihydropyrazolo[1,5-a]pyrazin-5(4H)-yl)prop-2-en-1-one] |  |  | A (percent of modification of PIK3CA protein ≥75%) | < 100 | 
3 | C=CC(=O)N1CCc2nc(-c3nc(-c4ncn(C)n4)c4ccsc4c3-c3c(F)cc(F)cc3OC(C)C)sc2C1 [Compound 390] |  |  | A (percent of modification of PIK3CA protein ≥75%) |  | < 100
4 | C=CC(=O)N1CCc2nc(-c3nc(-c4cnn(C)c4)c4ccsc4c3-c3ccc(F)cc3OCC3CCNC(=O)C3)sc2C1 (stereo not shown) [Compound 144, 4-[[5-fluoro-2-[4-(1-methylpyrazol-4-yl)-6-(5-prop-2-enoyl-6,7-dihydro-4H-thiazolo[5,4-c]pyridin-2-yl)thieno[3,2-c]pyridin-7-yl]phenoxy]methyl]piperidin-2-one] |  |  | A (percent of modification of PIK3CA protein ≥75%) | < 100 | 
5 | C=CC(=O)N1CCc2ncc(-c3nc(-c4ccc(=O)n(C(F)F)c4)c4ccsc4c3-c3c(F)cc(F)cc3OC(C)C)cc2C1 [Compound 335] |  |  | A (percent of modification of PIK3CA protein ≥75%) |  | < 100
6 | C=CC(=O)N1CCc2cc(-c3nc(-c4ccc5c(c4)CCNC5=O)c4ccsc4c3-c3c(F)cc(F)cc3OCCO)nn2CC1 [Compound 1202] | A (percent of modification of PIK3CA protein ≥75%) | < 100 |  |  | 
7 | C=CC(=O)N1CCn2nc(-c3nc(-c4ccc5c(cnn5C)c4)c4ccsc4c3-c3c(F)cc(F)cc3OCC(C)(C)O)cc2C1C (stereo not shown) [Compound 1125] | A (percent of modification of PIK3CA protein ≥75%) | 100 to 1000 |  |  | 
8 | C=CC(=O)N1CCn2nc(-c3nc(-c4cn(C)cn4)c4ccsc4c3-c3c(F)cc(F)cc3OCC(C)O)cc2C1C (stereo not shown) [Compound 833] |  |  | A (percent of modification of PIK3CA protein ≥75%) |  | < 100
9 | C=CC(=O)N1CCn2nc(-c3nc(-c4ccc5c(c4)CN(CC(F)F)CC5)c4ccsc4c3-c3c(F)cc(F)cc3OCCO)cc2C1C (stereo not shown) [Compound 1249] | A (percent of modification of PIK3CA protein ≥75%) | < 100 |  |  | 
10 | C=C(F)C(=O)N1CCn2nc(-c3nc(-c4ccc5c(c4)CNC5=O)c4ccsc4c3-c3c(F)cc(F)cc3OCC(F)F)cc2C1 [Compound 353] |  |  | B (50%<percent of modification <75%) |  | 100 to 1000
11 | C=CC(=O)N1CCc2nc(-c3nc(-c4cnc(C)s4)c4ccsc4c3-c3c(F)cc(F)cc3OCCOC)sc2C1 [Compound 431] |  |  | A (percent of modification of PIK3CA protein ≥75%) |  | 100 to 1000
12 | C=CC(=O)N1CCn2nc(-c3nc(-c4cnn(C)c4)c4ccsc4c3-c3ccc(F)cc3OC(C)C)c(OC)c2C1 [Compound 313] |  |  | A (percent of modification of PIK3CA protein ≥75%) |  | < 100
13 | C=CC(=O)N1CCc2ncc(-c3nc(-c4cn(C)cn4)c4ccsc4c3-c3c(F)cc(F)cc3OCCOC)cc2C1 [Compound 943] | A (percent of modification of PIK3CA protein ≥75%) |  |  |  | < 100
14 | C=CC(=O)N1Cc2cc(-c3nc(-c4ncn(C)n4)c4ccsc4c3-c3c(F)cc(F)cc3OCCOC)nn2CC1C (stereo not shown) [Compound 851] |  |  | A (percent of modification of PIK3CA protein ≥75%) |  | < 100
15 | C=CC(=O)N1CC(n2cc(-c3nc(-c4ccc5c(c4)CNC(=O)C5)c4ccsc4c3-c3ccc(F)cc3OC)cn2)C1 [Compound 79] |  |  | A (percent of modification of PIK3CA protein ≥75%) |  | < 100
16 | C=CC(=O)N1Cc2cc(-c3nc(-c4cnn(C(C)(C)CO)c4)c4ccsc4c3-c3c(F)cc(F)cc3OCCOC)nn2C[C@H]1C [Compound 738] |  |  | A (percent of modification of PIK3CA protein ≥75%) |  | < 100

Row | Compound | % of modification [1, 2] | IC50 (pAKT in BT474 cells; Compounds 1000-1279) [nM] | % of modification [1, 3] | IC50 (pAKT in BT474 cells; [4]) [nM] | IC50 (pAKT in BT474 cells; Compounds 10-999) [nM]
17 | C=CC(=O)N1CCn2nc(-c3nc(-c4ccc5c(c4)CCN(C)C5)c4ccsc4c3-c3c(F)cc(F)cc3OCCOC)cc2[C@@H]1C [Compound 544] |  |  | A (percent of modification of PIK3CA protein ≥75%) |  | < 100
18 | C=CC(=O)N1CCn2nc(-c3nc(-c4cnn(C)c4)c4ccsc4c3-c3c(F)cc(F)cc3OCCO)cc2C1C (stereo not shown) [Compound 532] |  |  | A (percent of modification of PIK3CA protein ≥75%) |  | < 100
19 | C=CC(=O)N1CCn2nc(-c3nc(-c4cnnc(C)c4)c4ccsc4c3-c3c(F)cc(F)cc3OCCOC)cc2C1C (stereo not shown) [Compound 790] |  |  | A (percent of modification of PIK3CA protein ≥75%) |  | < 100
20 | C=C(F)C(=O)N1CCn2nc(-c3nc(-c4ccc5c(c4)[C@@H](O)CC5)c4ccsc4c3-c3c(F)cc(F)cc3OC(C)C)cc2C1 [Compound 354] |  |  | B (50%<percent of modification <75%) |  | < 100
21 | C=CC(=O)N1CCn2nc(-c3nc(-c4ccc5c(c4)CCN(C)C5=O)c4ccsc4c3-c3c(F)cc(F)cc3OCCOC)cc2[C@@H]1C [Compound 974] | D (percent of modification <25%) |  |  |  | 100 to 1000
22 | C=CC(=O)N1Cc2cc(-c3nc(-c4ccc(C5(N)COC5)cc4)c4ccsc4c3-c3c(F)cc(F)cc3OC(C)C)nn2[C@@H](C)C1 [Compound 511] |  |  | A (percent of modification of PIK3CA protein ≥75%) |  | < 100
23 | C=CC(=O)N1CC(n2cc(-c3nc(N4CCN5CCCC5C4)c4ccsc4c3-c3ccc(F)cc3OCCOC)cn2)C1 (stereo not shown) [Compound 123] |  |  | A (percent of modification of PIK3CA protein ≥75%) |  | 100 to 1000
24 | C=CC(=O)N1Cc2cc(-c3nc(-c4cncc(C#N)c4)c4ccsc4c3-c3c(F)cc(F)cc3OCCOC)nn2C[C@H]1C [Compound 670] |  |  | A (percent of modification of PIK3CA protein ≥75%) |  | < 100
25 | C=CC(=O)N1CCc2cc(-c3nc(-c4cnn(C)c4)c4ccsc4c3-c3c(F)cc(F)cc3OC(C)C)nn2CC1 [Compound 569] |  |  | A (percent of modification of PIK3CA protein ≥75%) |  | < 100
26 | C=CC(=O)N1Cc2cc(-c3nc(-n4ccccc4=O)c4ccsc4c3-c3c(F)cc(F)cc3OCCOC)nn2C[C@H]1C [Compound 964, 1-[7-[2,4-difluoro-6-(2-methoxyethoxy)phenyl]-6-[(6R)-6-methyl-5-prop-2-enoyl-6,7-dihydro-4H-pyrazolo[1,5-a]pyrazin-2-1]thieno[3,2-c]pyridin-4-yl]pyridin-2-one] | A (percent of modification of PIK3CA protein ≥75%) |  |  | < 100 | 
27 | C=CC(=O)N1CCn2nc(-c3nc(-c4ccc5c(c4)CCN(C)CC5)c4ccsc4c3-c3c(F)cc(F)cc3OCCOC)cc2C1C (stereo not shown) [Compound 996] | A (percent of modification of PIK3CA protein ≥75%) |  |  |  | < 100
28 | C=CC(=O)N1CCn2nc(-c3nc(-c4cncc(CCN(C)C)c4)c4ccsc4c3-c3c(F)cc(F)cc3OCCOC)cc2C1C (stereo not shown) [Compound 1245] | A (percent of modification of PIK3CA protein ≥75%) | < 100 |  |  | 
29 | C=CC(=O)N1CCc2ncc(-c3nc(-c4ccc5c(c4)CNC5=O)c4ccsc4c3-c3ccc(F)cc3OC(C)C)cc2C1 [Compound 316] |  |  | A (percent of modification of PIK3CA protein ≥75%) |  | < 100
30 | C=CC(=O)N1CCc2nc(-c3nc(-c4ccc5c(c4)CCNC5)c4ccoc4c3-c3ccc(F)cc3OCCOC)sc2C1 [Compound 417] |  |  | A (percent of modification of PIK3CA protein ≥75%) |  | < 100
31 | CC#CC(=O)N1CCn2nc(-c3nc(-c4ccc5c(c4)CCNC5=O)c4ccsc4c3-c3ccc(F)cc3OC(C)C)cc2C1 [Compound 268] |  |  | A (percent of modification of PIK3CA protein ≥75%) |  | 100 to 1000
32 | C=CC(=O)N1CCn2nc(-c3nc(-c4ccc5c(c4)CCN(C)C5)c4ccsc4c3-c3c(F)cc(F)cc3OC[C@@H](C)O)cc2[C@@H]1C [Compound 546] |  |  | A (percent of modification of PIK3CA protein ≥75%) |  | < 100
